The target of one test is T1, full-length human Hpk1 (Homo sapiens, UniProt Q92918).
T1 construct: A recombinant fusion protein consisting of full-length human Hpk1; GST (N)
Briefly: HPK1 kinase assay (ADP Glo Kinase Assay). To be noted: full-length human GST-Hpk1, ADP Glo, 75 μM ATP; read-out: Hpk1 biochemical (pIC50) (converted). The format is biochemical. The method, then:
Pharmacological Part HPK1 Kinase Assay
A recombinant fusion protein consisting of full-length human Hpk1 with an N-terminal Glutatione S-transferase (GST) tag was produced in a baculovirus/insect cell expression system. GST-Hpk1 protein was purified from cell lysates by glutathione sepharose affinity chromatography. Kinase inhibition was determined using the ADP Glo™ Kinase Assay kit (Promega, V9101). Test compounds were prepared by serial dilution in dimethyl sulfoxide (DMSO) and 0.1 μl of each dilution was spotted onto a 384-well white Proxiplate (Perkin Elmer, 6008289). 8 μl of kinase assay buffer (40 mM Tris pH 7.5, 2 mM dithiothreitol (DTT), 0.05% Bovine Serum Albumin, 5 mM MgCl2) containing Hpk1 protein was transferred to each well and incubated for 30-45 minutes at room temperature. The enzymatic reaction was started by adding 2 μl of kinase assay buffer containing 75 μM ATP. After 120 minutes, the reaction was stopped by adding 3 μl of ADP Glo™ reagent (Promega, V9101) and incubating 45 minutes at room temperature.

In a further test the target is Hpk1 (Homo sapiens, UniProt Q92918). Nature of the test: SLP76 phosphorylation assay (SLP76 pS376 in lysates of HEK293 cells engineered to express Hpk1 and SLP76). The format is cell-based. The settings on record: HEK293 cells expressing Hpk1 and SLP76, 4 hours incubation; read-out: pSLP76 (HEK293) (pIC50) (converted). The method, then:
SLP76 Phosphorylation Assay
Hpk1 inhibition in cells was determined by detection of SLP76 phosphorylation at S376 in lysates from HEK293 cells engineered to express Hpk1 and SLP76. Serial dilutions of test compounds were prepared in cell culture medium and 20 μl was transferred into each well of a 96-well plate containing HEK293 cells in 180 μl of culture medium. After incubation for 4 hours at 37° C./5% CO2, the culture medium was removed, plates were put on ice and cells washed with cold Minimal Essential Medium before lysing in 90 μl of cold Mammalian Protein Extraction Reagent (Thermo Scientific, 78501) for 30 minutes on ice. The cell lysates were transferred to another 96-well plate, centrifuged 10 minutes at 3000 rcf (4° C.) and 30 μl transferred to a 96-well High-bind plate (MSD, L15XB-3). After coating overnight at 4° C., the cell lysate was removed, wells were washed with base buffer (TBS, 0.2% Tween-20), and blocking solution (base buffer containing 3% MSD blocker A) was added to each well for 1 hour at room temperature. The blocking solution was removed, the wells were washed with base buffer, and detection antibody (SLP76 pS376) was added in 25 μl base buffer containing 1% MSD blocker A to each well. After a 2 h incubation at room temperature, the detection antibody was removed, wells were washed four times with base buffer, 25 μl SULFO-TAG labeled goat anti-rabbit secondary antibody (MSD, R32AB-1) in base buffer containing 1% MSD blocker A was added to each well and left for 1 hour at room temperature. Wells were washed 4 times with base buffer, 150 μl Read Buffer T was added to each well, and the plates were read in a Mesoscale plate reader (MSD). IC50 values were determined by curve-fitting the electrochemiluminescent signals obtained from the lysates of HEK293 cells expressing Hpk1 and SLP76 treated with test compounds at various concentrations minus the signal obtained from HEK293 cells expressing SLP76 only.

These results are taken from patent US12492194B2, “HPK1 inhibitors” (Janssen Pharmaceutica NV, priority 2019, dated 2025).

Each structure is given as a SMILES string. Bounds are passed on as bounds.

T1 sequence (Q92918 whole entry, the tested form may be a part): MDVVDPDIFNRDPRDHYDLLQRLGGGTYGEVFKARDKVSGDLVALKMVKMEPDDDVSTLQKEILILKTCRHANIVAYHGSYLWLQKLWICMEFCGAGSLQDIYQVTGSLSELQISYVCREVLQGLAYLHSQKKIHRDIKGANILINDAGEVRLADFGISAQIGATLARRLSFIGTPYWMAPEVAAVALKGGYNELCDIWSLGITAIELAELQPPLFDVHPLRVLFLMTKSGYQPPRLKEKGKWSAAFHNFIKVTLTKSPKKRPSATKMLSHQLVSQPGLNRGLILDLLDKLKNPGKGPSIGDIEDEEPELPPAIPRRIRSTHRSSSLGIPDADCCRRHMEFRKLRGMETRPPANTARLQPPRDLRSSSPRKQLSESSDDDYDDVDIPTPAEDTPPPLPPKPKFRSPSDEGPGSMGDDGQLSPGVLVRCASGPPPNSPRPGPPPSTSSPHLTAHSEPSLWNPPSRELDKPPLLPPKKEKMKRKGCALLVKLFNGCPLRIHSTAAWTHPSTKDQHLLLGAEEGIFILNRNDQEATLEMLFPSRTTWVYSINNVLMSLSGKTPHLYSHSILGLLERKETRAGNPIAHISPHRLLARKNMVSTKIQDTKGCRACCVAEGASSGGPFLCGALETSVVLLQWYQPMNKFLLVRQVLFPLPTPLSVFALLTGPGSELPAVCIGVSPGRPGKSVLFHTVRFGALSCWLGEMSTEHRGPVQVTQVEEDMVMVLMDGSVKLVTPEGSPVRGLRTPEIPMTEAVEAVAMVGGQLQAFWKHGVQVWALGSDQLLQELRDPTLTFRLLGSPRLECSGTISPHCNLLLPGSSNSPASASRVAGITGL
Sequence of Hpk1 (Q92918 whole entry): as the sequence (Q92918 whole entry, the tested form may be a part) above

Turning to `Nc1ncc(-c2ccc(C3CCOCC3)c([C@@H]3CCCN3)c2)cc1-c1ccncc1F` [Co. 28], the figures for the IC50 on full-length human Hpk1 and at Hpk1 were 10.2 nM and 316 nM, respectively.
The corresponding values for `CC(C)(C#N)c1cc(-c2cc(-c3ccc(C4CCOCC4)c([C@@H]4CCCN4)c3)cnc2N)ccn1` [Co. 29] are 38 nM and 6030 nM.
The corresponding values for `Nc1ncc(-c2ccc(C3CCOCC3)c([C@@H]3CCCN3)c2)cc1-c1ccncc1Cl` [Co. 30] are 28.2 nM and 490 nM.
With `Nc1ncc(-c2ccc(C3CCOCC3)c([C@@H]3CCCN3)c2)cc1-c1cc(F)ncc1F` [Co. 31], the IC50 on full-length human Hpk1 is 20.4 nM; on Hpk1, 1050 nM.
As for `Nc1ncc(-c2ccc(C3CCOCC3)c([C@@H]3CCCN3)c2)cc1-c1cc(F)ncc1Cl` [Co. 32], the values for the IC50 at full-length human Hpk1 and on Hpk1 were 28.2 nM and 1860 nM, respectively.
The matching figures for `Nc1ncc(-c2ccc(C3CCOCC3)c([C@@H]3CCCN3)c2)cc1-c1ccnnc1` [Co. 33]: 14.5 nM and 2290 nM.
`Nc1ncc(-c2ccc(C3CCOCC3)c([C@@H]3CCCN3)c2)cc1-c1ccnc(C(F)F)c1` [Co. 34]: the IC50 at full-length human Hpk1 is 17.4 nM; on Hpk1, 1820 nM.
The corresponding values for `Nc1ncc(-c2ccc(C3CCOCC3)c([C@@H]3CCCN3)c2)cc1-c1ccnc(F)c1Cl` [Co. 35] are 8.13 nM and 676 nM.
The corresponding values for `N#Cc1ccc(-c2cc(-c3ccc(C4CCOCC4)c([C@@H]4CCCN4)c3)cnc2N)cc1` [Co. 36] are 7.94 nM and 692 nM.
The matching figures for `Nc1ncc(-c2ccc(C3CCOCC3)c([C@@H]3CCCN3)c2)cc1Br` [Co. 37]: 7.24 nM and 646 nM.
As to `Nc1ncc(-c2ccc(C3CCCCC3)c([C@@H]3CCCN3)c2)cc1-c1ccnc(F)c1` [Co. 38], the results for the IC50 on full-length human Hpk1 and at Hpk1 were 7.59 nM and 1290 nM, respectively.
The corresponding values for `Cc1cc(-c2cc(-c3ccc(C4CCOCC4)c([C@@H]4CCCN4)c3)cnc2N)on1` [Co. 39] are 2.34 nM and 275 nM.
The corresponding values for `CC1(C)COc2ncc(-c3cc(-c4ccc(C5CCOCC5)c([C@@H]5CCCN5)c4)cnc3N)cc21` [Co. 40] are 8.91 nM and 1100 nM.
The corresponding values for `Cn1cc(-c2nc(-c3ccc(C4CCOCC4)c([C@@H]4CCCN4)c3)cnc2N)cn1` [Co. 41] are 4.57 nM and 617 nM.
With `Nc1ncc(-c2ccc(C3CCOCC3)c([C@@H]3CCCN3)c2)nc1-c1ccncc1` [Co. 42], the IC50 was 24.5 nM at full-length human Hpk1 and 2000 nM at Hpk1.
On to `Nc1ncc(-c2ccc(C3CCOCC3)c([C@@H]3CCCN3)c2)nc1-c1ccnc(F)c1` [Co. 43], for which the IC50 at full-length human Hpk1 is 21.4 nM; at Hpk1 it was above 10000 nM.
The matching figures for `N#Cc1cc(-c2ccc(C3CCOCC3)c([C@@H]3CCCN3)c2)cnc1N` [Co. 44]: 9.33 nM and 339 nM.
The matching figures for `Nc1ncc(-c2ccc(C3=CCOC3)c([C@@H]3CCCN3)c2)cc1-c1ccnc(F)c1` [Co. 45]: 41.7 nM and 1120 nM.
The matching figures for `CS(=O)(=O)N1CC=C(c2ccc(-c3cnc(N)c(-c4ccnc(F)c4)c3)cc2[C@@H]2CCCN2)CC1` [Co. 46]: 35.5 nM and 1020 nM.
Consider `CC(=O)N1CC=C(c2ccc(-c3cnc(N)c(-c4ccnc(F)c4)c3)cc2[C@@H]2CCCN2)CC1` [Co. 47], for which the IC50 on full-length human Hpk1 is 24.5 nM; at Hpk1, 1350 nM.
The matching figures for `Nc1ncc(-c2ccc(C3=CCSCC3)c([C@@H]3CCCN3)c2)cc1-c1ccnc(F)c1` [Co. 48]: 25.1 nM and 1320 nM.
The corresponding values for `Nc1ncc(-c2ccc(C3=CCS(=O)(=O)CC3)c([C@@H]3CCCN3)c2)cc1-c1ccnc(F)c1` [Co. 49] are 24 nM and 2510 nM.
The corresponding values for `Nc1ncc(-c2ccc(C3CCC(F)(F)CC3)c([C@@H]3CCCN3)c2)cc1-c1ccnc(F)c1` [Co. 50] are 20 nM and 2450 nM.
